Test results as given in patent US5607937A, “Piperazides of substituted phenylalanine derivatives as thrombin inhibitors” (priority 1993, dated 1997).
Like-named read-outs stand apart in the source and are kept apart here.

Columns and labels:
[1] = molecular target: factor Xa (Bos taurus, UniProt P00743); assay: inhibition of factor Xa, dissociation constant Ki; type: biochemical; details: Table 1
Description: (§1) The biological activity of the compounds of the present invention was determined in vitro as well as in vivo.

[2] = molecular target: T1, thrombin (Bos taurus, UniProt P00735); assay: biochemical
[3] = molecular target: tPA (Homo sapiens, UniProt P00750); assay: inhibition of tPA, dissociation constant Ki
Chain of tPA (P00750 36-562): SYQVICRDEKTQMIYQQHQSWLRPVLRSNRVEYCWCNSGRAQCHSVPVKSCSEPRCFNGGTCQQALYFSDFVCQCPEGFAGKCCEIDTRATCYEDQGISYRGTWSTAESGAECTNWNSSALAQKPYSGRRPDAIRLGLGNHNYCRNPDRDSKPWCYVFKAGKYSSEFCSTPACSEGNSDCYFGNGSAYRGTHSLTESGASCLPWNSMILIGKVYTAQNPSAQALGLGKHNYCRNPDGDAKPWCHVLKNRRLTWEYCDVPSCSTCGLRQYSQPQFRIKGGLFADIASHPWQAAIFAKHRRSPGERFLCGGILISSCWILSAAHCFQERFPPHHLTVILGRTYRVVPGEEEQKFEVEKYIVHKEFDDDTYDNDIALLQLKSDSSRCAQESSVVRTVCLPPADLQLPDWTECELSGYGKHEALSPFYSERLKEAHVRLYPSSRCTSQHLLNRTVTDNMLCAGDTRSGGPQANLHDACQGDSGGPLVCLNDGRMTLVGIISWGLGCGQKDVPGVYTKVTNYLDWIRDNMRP

[4] = molecular target: plasmin (Homo sapiens, UniProt P00747); assay: inhibition of plasmin, dissociation constant Ki
Chain of plasmin (P00747 581-810 limits assumed): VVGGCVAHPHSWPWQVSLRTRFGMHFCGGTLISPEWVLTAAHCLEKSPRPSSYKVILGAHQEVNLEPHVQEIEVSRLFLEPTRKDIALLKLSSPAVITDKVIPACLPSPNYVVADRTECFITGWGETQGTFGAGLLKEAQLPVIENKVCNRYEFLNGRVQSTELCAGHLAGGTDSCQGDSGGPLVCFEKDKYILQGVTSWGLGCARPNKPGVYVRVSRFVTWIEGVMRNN
Chain of plasmin (P00747 97-580 partner limits assumed): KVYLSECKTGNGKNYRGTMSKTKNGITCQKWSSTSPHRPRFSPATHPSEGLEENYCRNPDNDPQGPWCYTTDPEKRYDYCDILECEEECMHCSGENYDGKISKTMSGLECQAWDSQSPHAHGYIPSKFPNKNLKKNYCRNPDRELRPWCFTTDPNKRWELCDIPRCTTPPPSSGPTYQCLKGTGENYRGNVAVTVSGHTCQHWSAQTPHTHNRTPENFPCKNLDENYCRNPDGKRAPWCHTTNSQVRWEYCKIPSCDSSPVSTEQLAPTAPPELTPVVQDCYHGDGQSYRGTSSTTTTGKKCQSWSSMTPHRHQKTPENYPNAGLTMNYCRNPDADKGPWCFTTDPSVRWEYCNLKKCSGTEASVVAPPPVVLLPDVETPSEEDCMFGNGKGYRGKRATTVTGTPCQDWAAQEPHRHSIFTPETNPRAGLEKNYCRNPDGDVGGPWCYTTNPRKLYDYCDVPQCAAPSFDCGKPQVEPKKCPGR

[5] = molecular target: T2, factor XIIa (Homo sapiens, UniProt P00748); assay: inhibition of factor XIIa, dissociation constant Ki
T2 sequence (P00748 373-615 limits assumed): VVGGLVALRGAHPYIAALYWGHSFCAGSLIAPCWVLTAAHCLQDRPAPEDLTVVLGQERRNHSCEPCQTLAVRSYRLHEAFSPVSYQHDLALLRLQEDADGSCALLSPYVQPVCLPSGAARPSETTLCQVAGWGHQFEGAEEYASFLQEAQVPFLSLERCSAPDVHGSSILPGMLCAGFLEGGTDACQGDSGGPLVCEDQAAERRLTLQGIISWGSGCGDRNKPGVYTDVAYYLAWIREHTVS

[6] = molecular target: plasma kallikrein (Homo sapiens, UniProt P03952); assay: inhibition of plasma kallikrein, dissociation constant Ki
Chain of plasma kallikrein (P03952 391-638 limits assumed, species assumed): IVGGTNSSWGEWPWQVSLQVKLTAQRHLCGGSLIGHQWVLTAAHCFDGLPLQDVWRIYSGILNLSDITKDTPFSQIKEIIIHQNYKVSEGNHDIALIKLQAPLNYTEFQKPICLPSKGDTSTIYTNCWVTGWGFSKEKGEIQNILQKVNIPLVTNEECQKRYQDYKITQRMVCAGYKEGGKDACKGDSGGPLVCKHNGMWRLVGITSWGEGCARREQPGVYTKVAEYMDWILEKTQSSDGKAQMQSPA
Chain of plasma kallikrein (P03952 20-390 partner limits assumed, species assumed): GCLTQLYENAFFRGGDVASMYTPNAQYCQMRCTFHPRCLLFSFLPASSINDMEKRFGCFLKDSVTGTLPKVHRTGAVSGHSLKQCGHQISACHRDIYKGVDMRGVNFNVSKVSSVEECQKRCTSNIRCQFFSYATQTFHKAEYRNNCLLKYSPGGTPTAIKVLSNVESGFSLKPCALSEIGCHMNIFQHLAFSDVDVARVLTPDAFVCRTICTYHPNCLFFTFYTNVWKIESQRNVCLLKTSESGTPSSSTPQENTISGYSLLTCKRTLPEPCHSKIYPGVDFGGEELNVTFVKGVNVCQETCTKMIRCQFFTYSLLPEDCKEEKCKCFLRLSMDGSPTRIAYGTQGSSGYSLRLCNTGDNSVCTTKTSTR

[7] = molecular target: glandular kallikrein (Sus scrofa, UniProt P00752); assay: inhibition of glandular kallikrein, dissociation constant Ki
Chain of glandular kallikrein (P00752 8-246): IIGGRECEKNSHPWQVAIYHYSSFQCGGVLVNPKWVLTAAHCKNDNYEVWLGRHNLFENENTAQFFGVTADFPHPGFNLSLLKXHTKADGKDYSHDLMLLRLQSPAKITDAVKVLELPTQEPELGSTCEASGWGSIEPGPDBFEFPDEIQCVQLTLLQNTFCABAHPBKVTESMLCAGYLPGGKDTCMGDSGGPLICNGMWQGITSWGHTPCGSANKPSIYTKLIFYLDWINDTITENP

[8] = molecular target: T3, trypsin (Bos taurus, UniProt P00760); assay: inhibition of trypsin, dissociation constant Ki; type: biochemical; parameters: thrombin and the related enzymes trypsin, plasmin, factor Xa, factor XIIa; details: Table 1; read-out: Ki, Trypsin
T3 sequence (P00760 24-246): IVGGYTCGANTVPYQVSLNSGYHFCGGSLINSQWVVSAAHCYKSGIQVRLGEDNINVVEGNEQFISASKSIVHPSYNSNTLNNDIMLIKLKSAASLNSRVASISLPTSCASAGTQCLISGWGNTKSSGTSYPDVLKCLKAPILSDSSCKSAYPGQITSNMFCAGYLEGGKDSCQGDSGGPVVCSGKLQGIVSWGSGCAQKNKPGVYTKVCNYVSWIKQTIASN
Description: as §1

[9] = molecular target: T1, thrombin; details: read-out: Ki, Thrombin

Chain of factor Xa (P00743 234-492 limits assumed): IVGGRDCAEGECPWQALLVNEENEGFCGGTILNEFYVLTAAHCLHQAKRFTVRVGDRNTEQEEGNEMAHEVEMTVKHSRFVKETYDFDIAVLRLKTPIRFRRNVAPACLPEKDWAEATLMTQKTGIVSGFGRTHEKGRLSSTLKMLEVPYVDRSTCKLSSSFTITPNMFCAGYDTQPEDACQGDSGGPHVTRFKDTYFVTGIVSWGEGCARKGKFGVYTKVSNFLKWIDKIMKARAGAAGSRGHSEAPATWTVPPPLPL
Chain of factor Xa (P00743 41-180 partner limits assumed): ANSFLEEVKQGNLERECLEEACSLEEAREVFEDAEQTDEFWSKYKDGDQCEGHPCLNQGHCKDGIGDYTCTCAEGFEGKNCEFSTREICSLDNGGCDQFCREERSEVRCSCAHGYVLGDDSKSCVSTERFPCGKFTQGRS

| Compound | Ki [1] | Ki [2] | Ki [3] | Ki [4] | Ki [5] | Ki [6] | Ki [7] | Ki [8] | Ki ([9]; Table 1) | Ki ([4]; read-out: Ki, Plasmin, Table 1) | Ki [9] | Ki ([5]; Ki, Factor XIIa, Table 1) |
| --- | --- | --- | --- | --- | --- | --- | --- | --- | --- | --- | --- | --- |
| N=C(N)c1cccc(CC(NS(=O)(=O)c2ccc3ccccc3c2)C(=O)N2CCN(c3ccccn3)CC2)c1 (centres unmarked) [AMD 2-Naph 2-Pyl] | 12 µM | 0.52 µM | > 1000 µM | 3.3 µM | 84 µM | 19 µM | > 1000 µM | 0.035 µM |  |  |  |  |
| N=C(N)c1cccc(CC(NS(=O)(=O)c2ccc3ccccc3c2)C(=O)N2CCN(S(=O)(=O)c3ccc4ccccc4c3)CC2)c1 (centres unmarked) [AMD 2-Naph SO2-2-Naph] | 25 µM |  | > 1000 µM |  | 90 µM | 22 µM | > 1000 µM |  | 0.024 µM | 11 µM |  |  |
| COc1cc(C)c(S(=O)(=O)NC(Cc2cccc(C(=N)N)c2)C(=O)N2CCN(S(C)(=O)=O)CC2)c(C)c1C (centres unmarked) [AMD Mtr SO2 Me] | 120 µM |  | > 1000 µM |  | 630 µM | 150 µM | > 1000 µM |  | 0.032 µM | 18 µM |  |  |
| CC(=O)N1CCN(C(=O)C(Cc2cccc(C(=N)N)c2)NS(=O)(=O)c2c(C)c(C)c3c(c2C)CCC(C)(C)O3)CC1 (centres unmarked) [AMD Pmc Ac] | 150 µM | 0.074 µM | 670 µM | 11.5 µM | 420 µM | 44 µM | 760 µM | 0.6 µM |  |  |  |  |
| COc1cc(C)c(S(=O)(=O)N2CCN(C(=O)C(Cc3cccc(C(=N)N)c3)NS(=O)(=O)c3ccc4ccccc4c3)CC2)c(C)c1C (centres unmarked) [AMD 2-Naph SO2 -Mtr] | 25 µM | 0.05 µM | > 1000 µM | 37 µM | 7.6 µM | 6.9 µM | > 1000 µM | 1.5 µM |  |  |  |  |
| N=C(N)c1cccc(CC(NS(=O)(=O)c2ccc3ccccc3c2)C(=O)N2CCN(C(=O)C3CCCCC3)CC2)c1 (centres unmarked) [AMD 2-Naph CO-cHex] |  |  | > 1000 µM |  | 350 µM | 79 µM | > 1000 µM |  |  | 10.2 µM |  |  |
| NCc1cccc(CC(NS(=O)(=O)c2ccc3ccccc3c2)C(=O)N2CCN(c3ccccn3)CC2)c1 (centres unmarked) [Ame 2-Naph 2-Pyl] | 130 µM | 24 µM | > 1000 µM | 26 µM | > 1000 µM | 94 µM | > 1000 µM | 0.53 µM |  |  |  |  |
| Cc1c(C)c(S(=O)(=O)NC(Cc2cccc(C(=N)N)c2)C(=O)N2CCN(C(=O)N(C)C)CC2)c(C)c2c1OC(C)(C)CC2 (centres unmarked) [AMD Pmc CO-N(Me)2] | 26 µM | 0.033 µM | > 1000 µM | 13 µM | > 1000 µM | 93 µM | > 1000 µM | 0.58 µM |  |  |  |  |
| N=C(N)c1cccc(CC(NS(=O)(=O)c2ccc3ccccc3c2)C(=O)N2CCN(c3ncccn3)CC2)c1 (centres unmarked) [AMD 2-Naph 2-Pym] | 14 µM | 1.8 µM | 320 µM | 3.3 µM | 100 µM | 19 µM | > 1000 µM | 0.061 µM |  |  |  |  |
| N=C(N)c1cccc(CC(NS(=O)(=O)c2ccc3ccccc3c2)C(=O)N2CCN(C(=O)C3CCC3)CC2)c1 (centres unmarked) [AMD 2-Naph CO-cBu] |  | 2.5 µM | > 1000 µM | 7.6 µM | > 1000 µM | 56 µM | > 1000 µM | 0.026 µM |  |  |  |  |
| CC(C)C(=O)N1CCN(C(=O)C(Cc2cccc(C(=N)N)c2)NS(=O)(=O)c2ccc3ccccc3c2)CC1 (centres unmarked) [AMD 2-Naph COCH(Me)2] | 84 µM | 0.26 µM | 440 µM | 9.3 µM | > 1000 µM | 50 µM | > 1000 µM | 0.063 µM |  |  |  |  |
| N=C(N)c1cccc(CC(NS(=O)(=O)c2ccc3ccccc3c2)C(=O)N2CCN(CCO)CC2)c1 (centres unmarked) [AMD 2-Naph EtOH] | 35 µM |  | > 1000 µM |  |  | 74 µM | > 1000 µM |  |  | 42 µM | 0.058 µM | > 1000 µM |
| CS(=O)(=O)N1CCN(C(=O)C(Cc2cccc(C(=N)N)c2)NS(=O)(=O)c2ccc3ccccc3c2)CC1 (centres unmarked) [AMD 2-Naph SO2 Me] | 22 µM |  | > 1000 µM |  | 86 µM | 77 µM | > 1000 µM |  |  | 12 µM |  |  |
| Cc1ccc(S(=O)(=O)N2CCN(C(=O)C(Cc3cccc(C(=N)N)c3)NS(=O)(=O)c3ccc4ccccc4c3)CC2)cc1 (centres unmarked) [AMD 2-Naph SO2 -Tol] | 24 µM |  | > 1000 µM |  | > 1000 µM | 30 µM | > 1000 µM |  | 0.022 µM | 15 µM |  |  |
| COCC(=O)N1CCN(C(=O)C(Cc2cccc(C(=N)N)c2)NS(=O)(=O)c2ccc3ccccc3c2)CC1 (centres unmarked) [AMD 2-Naph COCH2 OMe] | 16 µM | 1.3 µM | > 1000 µM | 6.2 µM | 74 µM | 16 µM | > 1000 µM | 0.066 µM |  |  |  |  |
| N=C(N)c1cccc(C[C@H](NS(=O)(=O)c2ccc3ccccc3c2)C(=O)N2CCN(C=O)CC2)c1 [AMD(L) 2-Naph For] |  | 0.011 µM | 120 µM |  | 42 µM | 3.6 µM | > 1000 µM | 0.073 µM |  |  |  |  |
| Cc1cc(C)c(S(=O)(=O)N2CCN(C(=O)C(Cc3cccc(C(=N)N)c3)NS(=O)(=O)c3ccc4ccccc4c3)CC2)c(C)c1 (centres unmarked) [AMD 2-Naph SO2 -TMeP] | 13 µM | 0.075 µM | > 1000 µM | 31 µM | 690 µM | 1 µM | > 1000 µM | 0.59 µM |  |  |  |  |
| Cc1c(C)c(S(=O)(=O)NC(Cc2cccc(C(=N)N)c2)C(=O)N2CCN(CCO)CC2)c(C)c2c1OC(C)(C)CC2 (centres unmarked) [AMD Pmc EtOH] | 91 µM | 0.059 µM | > 1000 µM | 48 µM | > 1000 µM | 180 µM | > 1000 µM | 3.3 µM |  |  |  |  |
| N=C(N)c1cccc(CC(NS(=O)(=O)c2ccc3ccccc3c2)C(=O)N2CCN(C(=O)Cc3cccs3)CC2)c1 (centres unmarked) [AMD 2-Naph drawing 11] | 16 µM | 2.5 µM | 170 µM | 2.7 µM | 72 µM | 19 µM | > 1000 µM | 0.081 µM |  |  |  |  |
| N=C(N)c1cccc(CC(NS(=O)(=O)c2ccc3c(c2)C(=O)c2ccccc2C3=O)C(=O)N2CCN(C=O)CC2)c1 (centres unmarked) [AMD AC For] | 1.7 µM | 0.031 µM | 84 µM | 13 µM | 7.2 µM | 11 µM | > 1000 µM | 0.033 µM |  |  |  |  |
| CC(=O)N1CCN(C(=O)C(Cc2cccc(C(=N)N)c2)NS(=O)(=O)c2c(C(C)C)cc(C(C)C)cc2C(C)C)CC1 (centres unmarked) [AMD TIPP Ac] | 4 µM | 0.098 µM | 17 µM |  | 47 µM | 7.3 µM | 200 µM | 0.22 µM |  | 3 µM |  |  |
| N=C(N)c1cccc(CC(NS(=O)(=O)c2ccc3ccccc3c2)C(=O)N2CCN(C(=O)C3CC3)CC2)c1 (centres unmarked) [AMD 2-Naph CO-cPr] | 45 µM | 0.14 µM | 170 µM | 5.1 µM | 540 µM | 22 µM | > 1000 µM | 0.044 µM |  |  |  |  |
| Cc1c(C)c(S(=O)(=O)NC(Cc2cccc(C(=N)N)c2)C(=O)N2CCN(S(C)(=O)=O)CC2)c(C)c2c1OC(C)(C)CC2 (centres unmarked) [AMD Pmc SO2 Me] | 75 µM |  | > 1000 µM |  | 140 µM | 140 µM | > 1000 µM |  | 0.0074 µM |  |  |  |
